Consider 21 molecules from the supplement of paper PMC10949913.

Each structure is given as a SMILES string.

Common to all, as to conditions: 48 h
In assay [1] the test system is CU-ACC1. Description: AC50 viability; higher = less potent. An outline of the steps:
(§1)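 In 1,536-well plates, 500–1,000 cells/well of three adrenocortical carcinoma cell lines in 5 µL medium received 23 nL of each library compound across 11 concentrations. At 48 h, CellTiter-Glo was incubated for 15 minutes at room temperature and luminescence measured. Per-plate normalisation used vehicle and empty-well controls, and only inhibitory or non-responding curve classes were kept when fitting concentration-response curves for AC50 and area under the curve.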

The subject of assay [2] is CU-ACC1. Put plainly: area under concentration-response curve (viability) (AUC (a.u.)); higher = less active. An outline of the steps: as §1
Assay [3] relates to NCI-H295R. The assay is described as above. The essentials:
as §1

For assay [4], the system named is NCI-H295R. Description: AC50 viability; higher = less potent. An outline of the steps: as §1
For a further assay, the system named is CU-ACC2. Put plainly: area under concentration-response curve (viability) (AUC (a.u.)); higher = less active. The essentials: as §1

`CCN(CC)CCCCNc1nc2cc(Cl)c(Cl)cc2nc1-c1ccc(-c2cccs2)s1`: in the assay on CU-ACC1 [1], the AC50 viability worked out at 23.5 µM. Further, the “area under concentration-response curve” value with CU-ACC1 [2] is 451.

Molecule `CC(=O)O[C@@]1(CC[C@H]2[C@@H]3\C=C(Cl)/C4=C/C(=O)[C@@H]5C[C@@H]5[C@]4(C)[C@H]3CC[C@]12C)C(C)=O` gave an AC50 viability in the assay with CU-ACC1 [1] of 2.35 µM. The “area under concentration-response curve” value came out at 304 with NCI-H295R [3] and 325 in the assay on CU-ACC1 [2].

On to `CC(C)c1c(C(=O)Nc2ccccc2)c(-c2ccccc2)c(-c2ccc(F)cc2)n1CC[C@@H](O)C[C@@H](O)CC(=O)O`, for which the AC50 viability in the assay on CU-ACC1 [1] was found to be 6.45 µM. Besides, the “area under concentration-response curve” value in the assay with NCI-H295R [3] stood at 635; in the assay with CU-ACC1 [2] it was 544.

Consider `O=C(N[C@H]1CCC[C@H](CO)C1)C1CCN(c2nc3cc(Cl)c(-c4ccc(Cl)cc4)cc3o2)CC1`, for which the AC50 viability in the assay with CU-ACC1 [1] was 20.9 µM. Also, the “area under concentration-response curve” value with CU-ACC1 [2] stood at 484.

For `CC(C)[N]1C=C(C)C2=C1C=C(C=C2C(=O)NC\C3=C(C)\C=C(C)/NC3=O)C4=CC=C(N=C4)N5CCN(C)CC5`, in the assay with CU-ACC1 [1], the AC50 viability was 23.5 µM. The “area under concentration-response curve” value with CU-ACC1 [2] came to 491.

Regarding `O=C1CSC(=O)N1C(CCc1ccncc1)COc1ccc(-c2cccc([N+](=O)[O-])c2)cc1` (stereo unspecified), the AC50 viability in the assay with CU-ACC1 [1] stood at 2.63 µM. In addition, the results for the “area under concentration-response curve” value with NCI-H295R [3] and in the assay on CU-ACC1 [2] were 396 and 309, respectively.

For the molecule `C[C@H](NC(=O)[C@@H](O)c1cc(F)cc(F)c1)C(=O)N[C@@H]1C(=O)N(C)c2ccccc2-c2ccccc21`, in the assay with CU-ACC1 [1], the AC50 viability worked out at 26.3 µM. Also, the “area under concentration-response curve” value in the assay on NCI-H295R [3] turned out to be 424; in the assay on CU-ACC1 [2], 381.

In the assay on CU-ACC1 [1], `Cc1nc2cc(C(=O)N3CCC4(CC3)CC(=O)c3c(cnn3C(C)C)C4)ccc2[nH]1` showed an AC50 viability of 26.3 µM. In addition, the results for the “area under concentration-response curve” value in the assay on NCI-H295R [3] and with CU-ACC1 [2] were 568 and 467, respectively.

With `CN(C)CCCN\C1=C\2C(=O)N(C)C(=O)\N=C2N(C)C3=C1C=CC=C3`, the AC50 viability with CU-ACC1 [1] was determined as 18.6 µM. Besides, in the assay with CU-ACC1 [2], the “area under concentration-response curve” value turned out to be 501.

In the case of `C[C@@H](Nc1cc(F)cc(F)c1)c1cc(C(=O)N(C)C)cc2c(=O)cc(N3CCOCC3)oc12`, the AC50 viability with CU-ACC1 [1] was determined as 13.2 µM. The “area under concentration-response curve” value with CU-ACC1 [2] came out at 466.

Consider `CC1=CC=CC=C1CN2C(=O)C/3=C(/CCN(CC4=CC=CC=C4)C3)N\5CC\N=C25`, for which the AC50 viability in the assay on CU-ACC1 [1] was 6.61 µM. For the same molecule, the “area under concentration-response curve” value in the assay on CU-ACC1 [2] is 313.

Consider `COc1cccc2c1CCCC2CCCN1CCN(C2CCCCC2)CC1` (stereo unspecified), for which the AC50 viability with CU-ACC1 [1] came out at 16.6 µM. Also, the “area under concentration-response curve” value with CU-ACC1 [2] turned out to be 501.

For the molecule `COc1cc(N2CCC(N3CCN(C)CC3)CC2)ccc1Nc1ncnc(Nc2ccccc2[S+](=O)([O-])C(C)C)n1`, in the assay on CU-ACC1 [1], the AC50 viability turned out to be 0.00468 µM. For the same molecule, the “area under concentration-response curve” value with CU-ACC1 [2] was 258.

In turn, `CCCCc1ccc2[nH]c(NC(=O)OC)nc2c1` showed an AC50 viability in the assay on NCI-H295R [4] of 0.148 µM. Moreover, the “area under concentration-response curve” value in the assay on NCI-H295R [3] stood at 438; in the assay on CU-ACC1 [2], 480; in the assay with CU-ACC2, 511.

For `COc1cc([C@@H]2c3cc4c(cc3[C@H](O)[C@H]3COC(=O)[C@H]23)OCO4)cc(OC)c1OC`, in the assay on NCI-H295R [4], the AC50 viability came to 0.0209 µM. Moreover, the “area under concentration-response curve” value in the assay on NCI-H295R [3] was found to be 359; with CU-ACC1 [2], 452; with CU-ACC2 it was 464.

Regarding `Nc1ncnc2c1ncn2[C@@H]1O[C@H](CO)C[C@H]1O`, in the assay with NCI-H295R [4], the AC50 viability came to 20.9 µM. Also, the “area under concentration-response curve” value was found to be 528 in the assay on NCI-H295R [3], 550 in the assay with CU-ACC1 [2] and 612 with CU-ACC2.

As for `C[C@H](NC1=C2N=C[NH]C2=NC=N1)C/3=C/C4=C(C(=CC=C4)Cl)C(=O)N3C5=CC=CC=C5`, the AC50 viability with CU-ACC1 [1] worked out at 20.9 µM. Besides, the “area under concentration-response curve” value with CU-ACC1 [2] was 447.

With `O=C\1NC(=O)\C(=C1C2=C[NH]C3=C2C=CC=C3)C4=C[NH]C5=C4C=CC=C5`, in the assay with NCI-H295R [4], the AC50 viability was found to be 16.6 µM. Moreover, the “area under concentration-response curve” value stood at 510 in the assay with NCI-H295R [3], 504 in the assay with CU-ACC1 [2] and 562 with CU-ACC2.

In the assay with NCI-H295R [4], `C/C(=C\c1csc(C)n1)[C@@H]1C[C@@H]2O[C@@H]2CCC[C@H](C)[C@H](O)[C@@H](C)C(=O)C(C)(C)[C@@H](O)CC(=O)O1` came in with an AC50 viability of 0.0132 µM. Further, the “area under concentration-response curve” value stood at 347 in the assay with NCI-H295R [3], 462 with CU-ACC1 [2] and 569 in the assay with CU-ACC2.

Molecule `COc1cccc(-c2cc(F)ccc2C2Cc3nc(N)nc(C)c3C(=O)N2)n1` (stereo unspecified) returned an AC50 viability with NCI-H295R [4] of 0.59 µM. The “area under concentration-response curve” value was 403 with NCI-H295R [3], 379 with CU-ACC1 [2] and 413 with CU-ACC2.

In the assay with NCI-H295R [4], `COC(=O)[C@@H]1[C@H]2C[C@H]3c4[nH]c5ccccc5c4CCN3C[C@@H]2CC[C@@H]1O` displayed an AC50 viability of 18.6 µM. Moreover, the “area under concentration-response curve” value is 442 in the assay with NCI-H295R [3], 443 in the assay with CU-ACC1 [2] and 458 in the assay with CU-ACC2.
